Series [1] is described as follows: Solubility study of AST-3424 (shaking at 25° C., HPLC content). The series is classed as physicochemical. Particulars: for solubility / solubility at 1 h / solubility at 4 h / solubility at 8 h / solubility at 24 h / solubility at 48 h: thermodynamic from solid; for solubility at 1 h / solubility at 4 h / solubility at 8 h / solubility at 24 h / solubility at 48 h: read-out: Content (solubility test). The method, then: An appropriate amount of AST-3424 (hereinafter called active pharmaceutical ingredients or API) was taken and placed in a suitable container containing 40 ml of the mentioned-above solutions (20 ml for organic solvents) respectively until excess oil droplets of AST-3424 existed in the solution.
Samples were put in a constant temperature shaking incubator at 25° C. and shaken at a proper speed (100 rpm). The samples were taken and checked pH values at each appointed time as specified in Table 1. Then, the samples were centrifuged (1000 rpm, 10 minutes), and added the corresponding solution or organic solvent (to dissolve the API for solubility study) to dilute to an appropriate concentration for HPLC analysis, so as to obtain solubility data. It should be noted that the dilution ratio after test was accurately recorded.
In the solubility study, for a determination of sample contents, 1 ml of culture medium were measured respectively, and then centrifuged at 1000 rpm for 10 minutes. Subnatant after centrifugation were collected respectively for HPLC analysis. In the solution stability study, the samples may be provided directly for HPLC analysis.
The contents were determined by a HPLC method: AST-3424 was used as an external standard for quantification.
According to the solution stability results, AST-3424 is very unstable in the acetate buffer of pH 4.5. Therefore, the phosphate buffer of pH 6.8, the phosphate buffer of pH 7.4, the alkaline borate buffer of pH 10.0, and the purified water were selected for the solubility study. An appropriate amount of AST-3424 was weighed and placed in 40 ml of medium (8 ml ethanol/propylene glycol (50:50, v/v) was used), until excess flocci was present in the solution.

Assay in series [2]: as above
The series is classed as physicochemical. Particulars: methanol, propanol, butanol, ethylene glycol, propylene glycol, glycerol, 1,3-butanediol, 1,2-butanediol; initial investigation.

Series [3] has as its system H460 non-small cell lung cancer. The series is described as follows: In vitro proliferation inhibition assay, 2 h exposure, Alamar Blue, with or without AKR1C3 inhibitor TH3021. The series is classed as cell-based, human. Particulars: for IC50: 2 h exposure, 70 h further incubation. The method, then:
The activities of the compounds were evaluated by a proliferation inhibition assay of active cancer cells in vitro.
In vitro proliferation data for a human tumor cell line of H460 non-small cell lung cancer were reported in a Table of compounds below.
IC50 values were in nanomoles and were obtained by the following procedure. Cells were exposed in the compounds with different concentration for 2 hours. Next, the compounds were washed off, and fresh medium was added into plates. Afterwards, a growth rate and a cell-survival rate were obtained by cell staining and compared with a control treated with the medium only.
Specifically speaking, the exponentially growing cells were seeded in 96-well plates at a density of 4×10^3 cells/well, and incubated for 24 hours at 37° C. in 5% CO2, 95% air and 100% relative humidity. Next, the compounds were added. Complementary, the compounds were dissolved in 100% DMSO at 200 times a desired final test concentration. The compounds were further diluted to 4 times the desired final test concentration with complete medium when the drug was added. A 50 μl aliquot of drug with the specific concentrations of the compounds was added to the 96-well plates already containing 150 μl of medium respectively to get the final test concentration reported. After the drug was added, the 96-well plates were incubated for 2 hours at 37° C. in 5% CO2, 95% air and 100% relative humidity. Then, the drug was washed off, and the 96-well plates were incubated for 70 hours at 37° C. in 5% CO2, 95% air and 100% relative humidity after adding the fresh medium. At the end of this incubation, Alamar Blue assay was used to quantify viable cells. The concentrations of the drug causing 50% growth inhibition (IC50) were calculated using computer software, and results are presented in a table below.
A cancer cell proliferation activity of the compounds with or without AKR1C3 enzyme inhibition was measured with and without adding TH3021 (with a sufficient inhibitory concentration), an inhibitor of AKR1C3.

Setting [4] is: alkaline borate buffer, 25 °C, pH 10, aqueous buffer, pH 10.0 (Alkaline borate buffer).
Where [5] appears, read: ethanol/propylene glycol (50:50, v/v), 25 °C, organic solvent or mixture, Ethanol/Propylene glycol (50:50, v/v).
Setting [6] is: phosphate buffer of pH 6.8, 25 °C, pH 6.8, aqueous buffer, pH 6.8 (Phosphate buffer).
Where [7] appears, read: phosphate buffer of pH 7.4, 25 °C, pH 7.4, aqueous buffer, pH 7.4 Phosphate buffer.
[8] abbreviates: phosphate buffer, 25 °C, pH 7.4, aqueous buffer, pH 7.4 Phosphate buffer.
Setting [9] is: purified water, 25 °C, water, Purified water.

Values after ≈ are worked out from the molar mass of the structure shown. “Also recorded” adds a separate entry of the source. Like-named read-outs stand apart in the source and are kept apart here.

For `C[C@H](OP(=O)(N1CC1)N1CC1)c1ccc([N+](=O)[O-])c(Oc2cccc(C(=O)N(C)C)c2)c1` [AST-3424, (S)-1-(3-(3-N,N-Dimethylaminocarbonyl)phenoxy-4-nitrophenyl)-1-ethyl-N,N′-bis(ethylene) phosphoramidate], the “Solubility, descriptive terms” value is “Sparingly soluble” in series [1] (Purified water); “easily soluble; also recorded: Freely soluble (FS)” in series [1] (ethanol/propylene glycol (50:50, v/v)); “Sparingly soluble” in series [1] (pH 6.8 (Phosphate buffer)); “Sparingly soluble” in series [1] (pH 7.4 (Phosphate buffer)); “Sparingly soluble” in series [1] (pH 10.0 (Alkaline borate buffer)). The solubility is approximately 23 mg/mL (≈ 50 mM) in series [1] (setting [4]); more than 270 mg/mL in series [1] (ethanol/propylene glycol (50:50, v/v), 25 °C, organic solvent or mixture, ethanol/propylene glycol (50:50, v/v)); approximately 23 mg/mL (≈ 50 mM) in series [1] (phosphate buffer, 25 °C, pH 6.8, aqueous buffer, pH 6.8 (Phosphate buffer)); approximately 23 mg/mL (≈ 50 mM) in series [1] (phosphate buffer, 25 °C, pH 7.4, aqueous buffer, pH 7.4 (Phosphate buffer)); approximately 20 mg/mL (≈ 43.4 mM) in series [1] (purified water, 25 °C, water). In addition, the solubility at 1 h in series [1] (setting [4]) is 23.5 mg/mL (≈ 51 mM); in series [1] (setting [5]), 271 mg/mL (≈ 589 mM); in series [1] (setting [6]), 23 mg/mL (≈ 50 mM); in series [1] (setting [7]), 23.7 mg/mL (≈ 51.4 mM); in series [1] (setting [9]), 20.9 mg/mL (≈ 45.4 mM). The solubility at 4 h in series [1] (setting [4]) was 23.6 mg/mL (≈ 51.2 mM); in series [1] (setting [5]) it was 302 mg/mL (≈ 657 mM); in series [1] (setting [6]), 22.9 mg/mL (≈ 49.8 mM); in series [1] (setting [7]), 23.5 mg/mL (≈ 51 mM); in series [1] (setting [9]), 20.1 mg/mL (≈ 43.7 mM). Further, the solubility at 8 h was determined as 23.5 mg/mL (≈ 51 mM) in series [1] (setting [4]); 301 mg/mL (≈ 654 mM) in series [1] (setting [5]); 23 mg/mL (≈ 50 mM) in series [1] (setting [6]); 23.6 mg/mL (≈ 51.2 mM) in series [1] (setting [8]); 19.7 mg/mL (≈ 42.7 mM) in series [1] (setting [9]). The solubility at 24 h worked out at 23.5 mg/mL (≈ 51 mM) in series [1] (setting [4]); 299 mg/mL (≈ 649 mM) in series [1] (setting [5]); 22.6 mg/mL (≈ 49.1 mM) in series [1] (setting [6]); 23.7 mg/mL (≈ 51.4 mM) in series [1] (setting [8]); 18.8 mg/mL (≈ 40.9 mM) in series [1] (setting [9]). Besides, the solubility at 48 h in series [1] (setting [4]) worked out at 23.7 mg/mL (≈ 51.4 mM); in series [1] (setting [5]), 274 mg/mL (≈ 595 mM); in series [1] (setting [6]), 22.1 mg/mL (≈ 47.9 mM); in series [1] (setting [7]), 23.4 mg/mL (≈ 50.8 mM); in series [1] (setting [9]) it was 17.8 mg/mL (≈ 38.6 mM). Further, in series [2], the “Solubility, in words” value is “good solubility”.
For `[2H]C([2H])([2H])N(C(=O)c1cccc(Oc2cc([C@H](C)OP(=O)(N3CC3)N3CC3)ccc2[N+](=O)[O-])c1)C([2H])([2H])[2H]` [AST-3424-D6], the half-maximal inhibitory concentration (IC50) in series [3] (H460, + TH3021 (inhibitor of AKR1C3)) is 165 nM; in series [3] (Homo sapiens, NCI-H460, H460, + TH3021 (inhibitor of AKR1C3)), 109 nM; in series [3] (Homo sapiens, NCI-H460, H460, without TH3021), less than 4.57 nM. In addition, the “In vitro activity compared with AST-3424, in words” value in series [3] (H460, FIG. 1 and Table 12) was “similar”.

For the origin of these results see patent US20220395464A1, “ORALLY ADMINISTERED SOLID DOSAGE FORM DRUG” (ASCENTAWITS PHARMACEUTICALS, LTD., priority 2019, published 2022).
